EP1036783B1 (MERCK & CO. INC., priority 1999, dated 2000)

What was measured:
[1] = test system: HMG-CoA reductase; conditions: following intraduodenal administration of dihydroxy open acid simvastatin
[2] = clinical; conditions: human, in vivo
[3] = test system: HMG-CoA reductase; conditions: human, in vivo

Compound: CCC(C)(C)C(=O)O[C@H]1C[C@@H](C)C=C2C=C[C@H](C)[C@H](CC[C@@H](O)C[C@@H](O)CC(=O)O)[C@H]21 [SVA, dihydroxy open acid simvastatin]
- lactonization of dihydroxy open acid simvastatin or its active metabolites [1]: occurred minimally
- effect of itraconazole measured as the unchanged drug [2]: 1.5 fold
- Tmax ([2]; SVA in plasma): 4.1 h
- Tmax ([2]; Simyastatin Acid in plasma): 4.1 ± 2.1 h
- half-life ([2]; t1/2, SV in plasma): 6.7 h
- half-life ([2]; t1/2, SVA in plasma): 2.3 h
- half-life ([2]; t1/2, Simyastatin Acid in plasma): 2.3 ± 0.5 h
- Cmax, Active Inhibitors [3]: 5.7 = 3.0 ng eq/mL
- Tmax, Active HMG-CoA reductase inhibitors [3]: 3.6 (2.5) hr
- change by itraconazole pre-treatment in AUC and Cmax of HMG-CoA reductase inhibitory activity (total or active) [3]: 1.3-1.5 fold
